From patent US20170190671A1, “BIS(ARYL)CATECHOL DERIVATIVES AS HERBICIDES” (E I DU PONT DE NEMOURS AND COMPANY, priority 2014, published 2017)

Tests used:
Format in all cases: in vivo
[1] = system: barnyardgrass (Echinochloa crus-galli); test: Test B flooded paddy; settings: 250 g ai/ha, Flood, 13 to 15 days, scale 0 (no effect) to 100 (complete control)
Procedure, shortened: (§1)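 Ratings were visual and made relative to untreated controls after 13 to 15 greenhouse days.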

[2] = system: ducksalad (Heteranthera limosa); test: Test B flooded paddy; settings: 250 g ai/ha, Flood, 13 to 15 days, scale 0 (no effect) to 100 (complete control)
Procedure, shortened: as §1

rice (Oryza sativa) = test: Test B flooded paddy; settings: 250 g ai/ha, Flood, 13 to 15 days, scale 0 (no effect) to 100 (complete control)
Procedure, shortened: as §1

[3] = system: sedge, umbrella (small-flower umbrella sedge, Cyperus difformis); test: Test B flooded paddy; settings: 250 g ai/ha, Flood, 13 to 15 days, scale 0 (no effect) to 100 (complete control)
Procedure, shortened: as §1

[4] = system: Italian ryegrass (Lolium multiflorum); test: Test A preemergence; settings: for Ryegrass, Italian plant response rating: 0 to 100 scale (0 no effect, 100 complete control)
Procedure, shortened: (§2)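 Greenhouse pot test, loam/sand soil. Formulation: non-phytotoxic solvent mix plus surfactant. Pre: directed spray onto soil after sowing. Post: plants at 1–2 leaf, 2–10 cm. Rated visually vs untreated controls at ~10 d, 0 (no effect) to 100 (complete control).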

[5] = system: barnyardgrass (Echinochloa crus-galli); test: Test A preemergence
Procedure, shortened: as §2

[6] = system: giant foxtail (Setaria faberii); test: Test A preemergence; settings: for Foxtail, Giant plant response rating: 0 to 100 scale (0 no effect, 100 complete control)
Procedure, shortened: as §2

kochia (Kochia scoparia) [7] = test: Test A preemergence; settings: for Kochia plant response rating: 0 to 100 scale (0 no effect, 100 complete control)
Procedure, shortened: as §2

[8] = system: pigweed (Amaranthus retroflexus); test: Test A preemergence; settings: for Pigweed plant response rating: 0 to 100 scale (0 no effect, 100 complete control)
Procedure, shortened: as §2

[9] = system: ragweed (common ragweed, Ambrosia elatior); test: Test A preemergence; settings: for Ragweed plant response rating: 0 to 100 scale (0 no effect, 100 complete control)
Procedure, shortened: as §2

[10] = system: Italian ryegrass (Lolium multiflorum); test: Test A postemergence; settings: 0 to 100 scale
Procedure, shortened: as §2

[11] = system: barnyardgrass (Echinochloa crus-galli); test: Test A postemergence; settings: 0 to 100 scale
Procedure, shortened: as §2

[12] = system: blackgrass (Alopecurus myosuroides); test: Test A postemergence; settings: 0 to 100 scale
Procedure, shortened: as §2

corn (Zea mays) = test: Test A postemergence; settings: 0 to 100 scale
Procedure, shortened: as §2

[13] = system: galium (catchweed bedstraw, Galium aparine); test: Test A postemergence; settings: 0 to 100 scale
Procedure, shortened: as §2

[14] = system: giant foxtail (Setaria faberii); test: Test A postemergence; settings: 0 to 100 scale
Procedure, shortened: as §2

kochia (Kochia scoparia) [15] = test: Test A postemergence; settings: 0 to 100 scale
Procedure, shortened: as §2

[16] = system: pigweed (Amaranthus retroflexus); test: Test A postemergence; settings: 0 to 100 scale
Procedure, shortened: as §2

[17] = system: ragweed (common ragweed, Ambrosia elatior); test: Test A postemergence; settings: 0 to 100 scale
Procedure, shortened: as §2

[18] = system: wheat (Triticum aestivum); test: Test A postemergence; settings: 0 to 100 scale
Procedure, shortened: as §2

kochia (Kochia scoparia) [19] = test: Test C postemergence; settings: scale 0 to 100
Procedure, shortened: (§3)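 Greenhouse test, preemergence on seeded soil or postemergence on 1- to 4-leaf plants. Response is a visual 0-100 rating versus controls, taken 13-15 days after treatment.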

[20] = system: waterhemp (common waterhemp, Amaranthus rudis); test: Test C postemergence; settings: scale 0 to 100
Procedure, shortened: as §3

wild oat (Avena fatua) = test: Test C postemergence; settings: scale 0 to 100
Procedure, shortened: as §3

## Fc1cnc(Oc2c(F)cccc2Oc2ncc(Cl)cn2)nc1 [Compound 23]
[1]; Echinochloa crus-galli, 336 h, read-out: Plant response rating, Barnyardgrass
  pest or weed control at 250 g/ha: 60%
[2]; Heteranthera limosa, 336 h, read-out: Plant response rating, Ducksalad
  pest or weed control at 250 g/ha: 90%
Rice (Oryza sativa); Oryza sativa, 336 h, read-out: Plant response rating, Rice
  plant injury at 250 g/ha: 60%
[3]; Cyperus difformis, 336 h, read-out: Plant response rating, Sedge, Umbrella
  pest or weed control at 250 g/ha: 80%
[4]; Lolium multiflorum, pre-emergence, 240 h, 1000 g ai/ha, 0 to 100 scale, read-out: Plant response rating, Ryegrass, Italian
  pest or weed control at 1000 g/ha: 80%
[5]; Echinochloa crus-galli, pre-emergence, 240 h, 1000 g ai/ha, 0 to 100 scale, read-out: Plant response rating, Barnyardgrass
  pest or weed control at 1000 g/ha: 100%
[6]; Setaria faberi, pre-emergence, 240 h, 1000 g ai/ha, 0 to 100 scale, read-out: Plant response rating, Foxtail, Giant
  pest or weed control at 1000 g/ha: 100%
Kochia (Kochia scoparia) [7]; Bassia scoparia, pre-emergence, 240 h, 1000 g ai/ha, 0 to 100 scale, read-out: Plant response rating, Kochia
  pest or weed control at 1000 g/ha: 100%
[8]; Amaranthus retroflexus, pre-emergence, 240 h, 1000 g ai/ha, 0 to 100 scale, read-out: Plant response rating, Pigweed
  pest or weed control at 1000 g/ha: 100%
[9]; Ambrosia artemisiifolia, pre-emergence, 240 h, 1000 g ai/ha, 0 to 100 scale, read-out: Plant response rating, Ragweed
  pest or weed control at 1000 g/ha: 100%
[10]; Lolium multiflorum, post-emergence, 240 h, 1000 g ai/ha, read-out: Plant response rating, Ryegrass, Italian
  pest or weed control at 1000 g/ha: 90%
[11]; Echinochloa crus-galli, post-emergence, 240 h, 1000 g ai/ha, 0 no effect, 100 complete control, read-out: Plant response rating, Barnyardgrass
  pest or weed control at 1000 g/ha: 90%
[12]; Alopecurus myosuroides, post-emergence, 240 h, 1000 g ai/ha, read-out: Plant response rating, Blackgrass
  pest or weed control at 1000 g/ha: 80%
Corn (Zea mays); Zea mays, post-emergence, 240 h, 1000 g ai/ha
  Corn plant response rating (crop injury, 0 = no effect, 100 = complete kill) at 1000 g/ha: 50%
[13]; Galium, post-emergence, 240 h, 1000 g ai/ha, read-out: Plant response rating, Galium
  pest or weed control at 1000 g/ha: 90%
[14]; Setaria faberi, post-emergence, 240 h, 1000 g ai/ha, read-out: Plant response rating, Foxtail, Giant
  pest or weed control at 1000 g/ha: 90%
Kochia (Kochia scoparia) [15]; Bassia scoparia, post-emergence, 240 h, 1000 g ai/ha, read-out: Plant response rating, Kochia
  pest or weed control at 1000 g/ha: 90%
[16]; Amaranthus retroflexus, post-emergence, 240 h, 1000 g ai/ha, read-out: Plant response rating, Pigweed
  pest or weed control at 1000 g/ha: 100%
[17]; Ambrosia artemisiifolia, post-emergence, 240 h, 1000 g ai/ha, read-out: Plant response rating, Ragweed
  pest or weed control at 1000 g/ha: 90%
[18]; Triticum aestivum, post-emergence, 240 h, 1000 g ai/ha, read-out: Plant response rating, Wheat
  plant injury at 1000 g/ha: 60%
Kochia (Kochia scoparia) [19]; Bassia scoparia, post-emergence, Postemergence, 31 g ai/ha, read-out: Plant response rating, Kochia
  pest or weed control at 31 g/ha: 5%
Kochia (Kochia scoparia) [19]; Bassia scoparia, post-emergence, Postemergence, 62 g ai/ha, read-out: Plant response rating, Kochia
  pest or weed control at 62 g/ha: 70%
Kochia (Kochia scoparia) [19]; Bassia scoparia, post-emergence, Postemergence, 125 g ai/ha, read-out: Plant response rating, Kochia
  pest or weed control at 125 g/ha: 80%
Kochia (Kochia scoparia) [19]; Bassia scoparia, post-emergence, Postemergence, 250 g ai/ha, read-out: Plant response rating, Kochia
  pest or weed control at 250 g/ha: 90%
[20]; Amaranthus tuberculatus, post-emergence, Postemergence, 31 g ai/ha, read-out: Plant response rating, Waterhemp
  pest or weed control at 31 g/ha: 65%
[20]; Amaranthus tuberculatus, post-emergence, Postemergence, 62 g ai/ha, read-out: Plant response rating, Waterhemp
  pest or weed control at 62 g/ha: 75%
[20]; Amaranthus tuberculatus, post-emergence, Postemergence, 125 g ai/ha, read-out: Plant response rating, Waterhemp
  pest or weed control at 125 g/ha: 90%
[20]; Amaranthus tuberculatus, post-emergence, Postemergence, 250 g ai/ha, read-out: Plant response rating, Waterhemp
  pest or weed control at 250 g/ha: 98%
Wild oat (Avena fatua); Avena fatua, post-emergence, Postemergence, 31 g ai/ha, read-out: Plant response rating, Oat, Wild
  pest or weed control at 31 g/ha: 0%
Wild oat (Avena fatua); Avena fatua, post-emergence, Postemergence, 62 g ai/ha, read-out: Plant response rating, Oat, Wild
  pest or weed control at 62 g/ha: 0%
Wild oat (Avena fatua); Avena fatua, post-emergence, Postemergence, 125 g ai/ha, read-out: Plant response rating, Oat, Wild
  pest or weed control at 125 g/ha: 0%
Wild oat (Avena fatua); Avena fatua, post-emergence, Postemergence, 250 g ai/ha, read-out: Plant response rating, Oat, Wild
  pest or weed control at 250 g/ha: 5%

## Fc1ccc(F)c(Oc2ncc(C(F)(F)F)cn2)c1Oc1ncc(Cl)cn1 [Compound 25]
[1]
  Plant response rating, Barnyardgrass: 55
[2]
  Plant response rating, Ducksalad: 90
Rice (Oryza sativa)
  Plant response rating, Rice: 20
[3]
  Plant response rating, Sedge, Umbrella: 75
[4]; 31 g ai/ha
  Ryegrass, Italian plant response rating: 10
[4]; 125 g ai/ha
  Ryegrass, Italian plant response rating: 40
[5]; 31 g ai/ha, 0 to 100 scale (0 no effect, 100 complete control)
  Barnyardgrass plant response rating: 10
[5]; 125 g ai/ha, 0 to 100 scale
  Plant response rating, Barnyardgrass: 70
[6]; 31 g ai/ha
  Foxtail, Giant plant response rating: 50
[6]; 125 g ai/ha
  Foxtail, Giant plant response rating: 90
Kochia (Kochia scoparia) [7]; 31 g ai/ha
  Kochia plant response rating: 50
Kochia (Kochia scoparia) [7]; 125 g ai/ha
  Kochia plant response rating: 100
[8]; 31 g ai/ha
  Pigweed plant response rating: 90
[8]; 125 g ai/ha
  Pigweed plant response rating: 100
[9]; 31 g ai/ha
  Ragweed plant response rating: 0
[9]; 125 g ai/ha
  Ragweed plant response rating: 0
[10]; 31 g ai/ha
  Plant response rating, Ryegrass, Italian: 0
[10]; 125 g ai/ha
  Plant response rating, Ryegrass, Italian: 50
[11]; 31 g ai/ha
  Plant response rating, Barnyardgrass: 10
[11]; 125 g ai/ha
  Plant response rating, Barnyardgrass: 60
[12]; 31 g ai/ha
  Plant response rating, Blackgrass: 60
[12]; 125 g ai/ha
  Plant response rating, Blackgrass: 70
Corn (Zea mays); 31 g ai/ha
  Plant response rating, Corn: 10
Corn (Zea mays); 125 g ai/ha
  Plant response rating, Corn: 30
[13]; 31 g ai/ha
  Plant response rating, Galium: 80
[13]; 125 g ai/ha
  Plant response rating, Galium: 90
[14]; 31 g ai/ha
  Plant response rating, Foxtail, Giant: 30
[14]; 125 g ai/ha
  Plant response rating, Foxtail, Giant: 50
Kochia (Kochia scoparia) [15]; 31 g ai/ha
  Plant response rating, Kochia: 50
Kochia (Kochia scoparia) [15]; 125 g ai/ha
  Plant response rating, Kochia: 70
[16]; 31 g ai/ha
  Plant response rating, Pigweed: 90
[16]; 125 g ai/ha
  Plant response rating, Pigweed: 100
[17]; 31 g ai/ha
  Plant response rating, Ragweed: 20
[17]; 125 g ai/ha
  Plant response rating, Ragweed: 30
[18]; 31 g ai/ha
  Plant response rating, Wheat: 0
[18]; 125 g ai/ha
  Plant response rating, Wheat: 30
Kochia (Kochia scoparia) [19]; 8 g ai/ha, postemergence
  Plant response rating, Kochia: 0
Kochia (Kochia scoparia) [19]; Postemergence, 16 g ai/ha
  Plant response rating, Kochia: 50
Kochia (Kochia scoparia) [19]; Postemergence, 31 g ai/ha
  Plant response rating, Kochia: 60
Kochia (Kochia scoparia) [19]; Postemergence, 62 g ai/ha
  Plant response rating, Kochia: 75
[20]; 8 g ai/ha, postemergence
  Plant response rating, Waterhemp: 90
[20]; Postemergence, 31 g ai/ha
  Plant response rating, Waterhemp: 50
[20]; Postemergence, 62 g ai/ha
  Plant response rating, Waterhemp: 75
Wild oat (Avena fatua); 8 g ai/ha, postemergence
  Plant response rating, Oat, Wild: 5
Wild oat (Avena fatua); Postemergence, 31 g ai/ha
  Plant response rating, Oat, Wild: 10
Wild oat (Avena fatua); Postemergence, 62 g ai/ha
  Plant response rating, Oat, Wild: 15
